# Laboratory results reported in paper PMC7708446, “^18F-meta-fluorobenzylguanidine (^18F-mFBG) to monitor changes in norepinephrine transporter expression in response to therapeutic intervention in neuroblastoma models” (Scientific Reports, 2020).
# How the values were obtained:
# [1] = Biodistribution and PET statements pooled over Kelly and SK-N-BE(2)C xenograft-bearing mice; format: in vivo; conditions: 1 h p.i.
# Protocol: When the tumours reached approximately 100–200 mm^3, mice were anaesthetised with an isoflurane/O2 mixture (1.5–2.0% v/v) and intravenously injected with either ^18F-mFBG (~ 7.5 MBq) or ^123I-mIBG (~ 20 MBq). Mice were then imaged using an Albira PET/SPECT/CT scanner (Bruker, Coventry, UK). […] Acquisition, reconstruction and image analysis were performed as described previously. Following the final scan, the mice were sacrificed and the major organs were excised, weighed and their associated radioactivity was measured using a γ-counter. Biodistribution and image quantification were expressed as a percentage of injected dose per gram of tissue (%ID/g), whereby 1 cm^3 on PET acquisitions were assumed to equal 1 g (n ≥ 3 mice ± SD).
# Kelly xenografts [2] = experiment: Ex vivo biodistribution (γ-counter), mice bearing Kelly xenografts; format: in vivo; conditions: for ^18F-mFBG biodistribution 4 h p.i., Blood / ^18F-mFBG biodistribution 4 h p.i., Bone / ^18F-mFBG biodistribution 4 h p.i., Brown adipose / ^18F-mFBG biodistribution 4 h p.i., Heart / ^18F-mFBG biodistribution 4 h p.i., Kidney / ^18F-mFBG biodistribution 4 h p.i., Liver / ^18F-mFBG biodistribution 4 h p.i., Lungs / ^18F-mFBG biodistribution 4 h p.i., Muscle / ^18F-mFBG biodistribution 4 h p.i., Pancreas / ^18F-mFBG biodistribution 4 h p.i., Small intestine / ^18F-mFBG biodistribution 4 h p.i., Spleen / ^18F-mFBG biodistribution 4 h p.i., Tumour / ^18F-mFBG biodistribution 4 h p.i., Tumour:blood / ^18F-mFBG biodistribution 4 h p.i., Tumour:muscle: Kelly, 3 days
# Protocol: All studies were conducted in compliance with licenses issued under the UK Animals (Scientific Procedures) Act 1986 and approved by the Institute of Cancer Research Animal Welfare and Ethical Review Body (AWERB) according to the United Kingdom National Cancer Research Institute Guidelines for Animal Welfare in Cancer Research (project license PCC916B22, Animals in Science Regulation Unit, Home Office Science, London, UK)[65]. Female Nu(NCr)-Foxn1nu mice (5–7 weeks; 20–22 g) obtained from an in-house breeding colony were used in the studies. Animals were housed in a temperature-controlled facility with 12 h on–12 h off light cycle and provided water and laboratory rodent food ad libitum. Subcutaneous xenografts were generated by injection of either Kelly (5 × 10^6/0.1 mL PBS/Matrigel 30% v/v; BD Matrigel Matrix, BD Bioscience, San Jose, California, US) or SK-N-BE(2)C (1 × 10^6/0.1 mL PBS/Matrigel) into the lower flank. For the treatment studies, AZD2014 stock solution in DMSO was diluted in PEG400 to a final concentration of 2 mg/mL (10% DMSO maximum). When tumours reached ~ 100 mm^3 (calliper measurements using formula: Volume = (Width(2) × Length)/2), mice were treated daily, for a total of either 1, 3 or 7 days, by oral gavage with AZD2014 (20 or 25 mg/kg/day) or vehicle control. Mice were monitored daily for body weight or other adverse effects.
# (§1) When the tumours reached approximately 100–200 mm^3, mice were anaesthetised with an isoflurane/O2 mixture (1.5–2.0% v/v) and intravenously injected with either ^18F-mFBG (~ 7.5 MBq) or ^123I-mIBG (~ 20 MBq). Mice were then imaged using an Albira PET/SPECT/CT scanner (Bruker, Coventry, UK). Whole body PET static images were acquired after 1 and 4 h post-injection (p.i.) for 10 min with an energy window of 358 to 664 keV followed by CT acquisition. Acquisition, reconstruction and image analysis were performed as described previously. Following the final scan, the mice were sacrificed and the major organs were excised, weighed and their associated radioactivity was measured using a γ-counter. Biodistribution and image quantification were expressed as a percentage of injected dose per gram of tissue (%ID/g), whereby 1 cm^3 on PET acquisitions were assumed to equal 1 g (n ≥ 3 mice ± SD).
# Kelly xenografts [3] = experiment: PET quantification of tumour uptake, Kelly xenografts; format: in vivo, mice
# Protocol: as §1
# SK-N-BE(2)C xenografts = experiment: PET quantification of tumour uptake, SK-N-BE(2)C xenografts; format: in vivo, mice
# Protocol: as §1
structure (smiles),measurement,setting,value
"N=C(N)NCc1cccc([18F])c1 [^18F-mFBG, ^18F-meta-fluorobenzylguanidine]","radiotracer uptake, brown adipose tissue (BAT)",[1],> 7.0 %ID/g
same,"radiotracer uptake, heart",[1],> 12.0 %ID/g
same,"radiotracer uptake, small intestine",[1],~ 8.0 %ID/g
same,tumour uptake,"Kelly xenografts [2]; Kelly xenografts, 4 h p.i., n = 3",0.30 ± 0.14 %ID/g
same,"^18F-mFBG biodistribution 4 h p.i., Blood",Kelly xenografts [2]; AZD2014 (25 mg/kg/day),0.19 ± 0.03 %ID/g
same,"^18F-mFBG biodistribution 4 h p.i., Bone",Kelly xenografts [2]; AZD2014 (25 mg/kg/day),0.99 ± 0.07 %ID/g
same,"^18F-mFBG biodistribution 4 h p.i., Brown adipose",Kelly xenografts [2]; AZD2014 (25 mg/kg/day),7.20 ± 0.88 %ID/g
same,"^18F-mFBG biodistribution 4 h p.i., Heart",Kelly xenografts [2]; AZD2014 (25 mg/kg/day),4.22 ± 0.85 %ID/g
same,"^18F-mFBG biodistribution 4 h p.i., Kidney",Kelly xenografts [2]; AZD2014 (25 mg/kg/day),0.97 ± 0.17 %ID/g
same,"^18F-mFBG biodistribution 4 h p.i., Liver",Kelly xenografts [2]; AZD2014 (25 mg/kg/day),2.08 ± 0.45 %ID/g
same,"^18F-mFBG biodistribution 4 h p.i., Lungs",Kelly xenografts [2]; AZD2014 (25 mg/kg/day),1.31 ± 0.39 %ID/g
same,"^18F-mFBG biodistribution 4 h p.i., Muscle",Kelly xenografts [2]; AZD2014 (25 mg/kg/day),0.64 ± 0.17 %ID/g
same,"^18F-mFBG biodistribution 4 h p.i., Pancreas",Kelly xenografts [2]; AZD2014 (25 mg/kg/day),1.25 ± 0.21 %ID/g
same,"^18F-mFBG biodistribution 4 h p.i., Small intestine",Kelly xenografts [2]; AZD2014 (25 mg/kg/day),7.30 ± 1.11 %ID/g
same,"^18F-mFBG biodistribution 4 h p.i., Spleen",Kelly xenografts [2]; AZD2014 (25 mg/kg/day),4.58 ± 0.77 %ID/g
same,"^18F-mFBG biodistribution 4 h p.i., Tumour",Kelly xenografts [2]; AZD2014 (25 mg/kg/day),0.74 ± 0.25 %ID/g
same,"^18F-mFBG biodistribution 4 h p.i., Tumour:blood",Kelly xenografts [2]; AZD2014 (25 mg/kg/day),4.16 ± 1.89
same,"^18F-mFBG biodistribution 4 h p.i., Tumour:muscle",Kelly xenografts [2]; AZD2014 (25 mg/kg/day),1.23 ± 0.61
same,"^18F-mFBG biodistribution 4 h p.i., Blood",Kelly xenografts [2]; Vehicle,0.22 ± 0.05 %ID/g
same,"^18F-mFBG biodistribution 4 h p.i., Bone",Kelly xenografts [2]; Vehicle,1.43 ± 0.83 %ID/g
same,"^18F-mFBG biodistribution 4 h p.i., Brown adipose",Kelly xenografts [2]; Vehicle,5.84 ± 2.44 %ID/g
same,"^18F-mFBG biodistribution 4 h p.i., Heart",Kelly xenografts [2]; Vehicle,6.34 ± 1.41 %ID/g
same,"^18F-mFBG biodistribution 4 h p.i., Kidney",Kelly xenografts [2]; Vehicle,1.11 ± 0.47 %ID/g
same,"^18F-mFBG biodistribution 4 h p.i., Liver",Kelly xenografts [2]; Vehicle,2.37 ± 0.71 %ID/g
same,"^18F-mFBG biodistribution 4 h p.i., Lungs",Kelly xenografts [2]; Vehicle,1.52 ± 0.22 %ID/g
same,"^18F-mFBG biodistribution 4 h p.i., Muscle",Kelly xenografts [2]; Vehicle,0.74 ± 0.23 %ID/g
same,"^18F-mFBG biodistribution 4 h p.i., Pancreas",Kelly xenografts [2]; Vehicle,1.26 ± 0.28 %ID/g
same,"^18F-mFBG biodistribution 4 h p.i., Small intestine",Kelly xenografts [2]; Vehicle,6.57 ± 1.12 %ID/g
same,"^18F-mFBG biodistribution 4 h p.i., Spleen",Kelly xenografts [2]; Vehicle,3.77 ± 0.82 %ID/g
same,"^18F-mFBG biodistribution 4 h p.i., Tumour",Kelly xenografts [2]; Vehicle,0.39 ± 0.13 %ID/g
same,"^18F-mFBG biodistribution 4 h p.i., Tumour:blood",Kelly xenografts [2]; Vehicle,1.75 ± 0.29
same,"^18F-mFBG biodistribution 4 h p.i., Tumour:muscle",Kelly xenografts [2]; Vehicle,0.53 ± 0.01
same,PET tumour uptake,"Kelly xenografts [3]; 1 h p.i., n = 9",1.10 ± 0.34 %ID/g
same,PET tumour uptake,"Kelly xenografts [3]; 4 h p.i., n = 5",0.65 ± 0.29 %ID/g
same,PET tumour uptake,"SK-N-BE(2)C xenografts; 1 h p.i., n = 21",2.46 ± 0.71 %ID/g
same,PET tumour uptake,"SK-N-BE(2)C xenografts; 4 h p.i., n = 15",3.88 ± 1.15 %ID/g
